Our source for the bioavailability values is ChEMBL document CHEMBL5226318, “Emerging Therapeutic Potential of SIRT6 Modulators” (J Med Chem, 2021).

The nature of this series: Oral bioavailability in C57BL/6J mouse. Format: ADME, organism-based. Particulars: in vivo.

As to `Cc1cc(F)c(Br)cc1NS(=O)(=O)c1ccc(NS(=O)(=O)c2cc(Cl)cc(Cl)c2)cc1CN1CCOC[C@H]1C`, the bioavailability (in general, the share of a dose that reaches the circulation, judged against a reference dose that is usually intravenous) worked out at 93%.
As for `COC(=O)c1cc(NS(=O)(=O)c2cc(Cl)cc(Cl)c2)ccc1S(=O)(=O)Nc1cc(Br)c(F)cc1C`, the bioavailability is 71.3%.
